Measurements as given in US8937039B2, “Peptide-based peroxidase inhibitors and methods of using same” (The Medical College of Wisconsin, Inc., priority 2009, dated 2015).
“Also recorded” adds a separate entry of the source. Residues, ends and D or L forms follow the SMILES beside them.

What was measured:
lung cancer mice = assay: BHT-treated lung cancer mice (BALF activities, tumor number); assay type: in vivo, mouse
Protocol: Inhibiting MPO decreases PMN degranulation in lung cancer mice. PMNs are considered to play a causal role in initiating tumor formation. Effects of KYC on PMN recruitment and tumor formation in lung cancer mice were determined. Briefly, mice were treated with BHT (single dose: 300 mg/kg) and KYC (0.3 mg/kg/d).

MPO [1] = molecular target: T1, MPO (Homo sapiens, UniProt P05164); assay: MPO-mediated nitration of LDL (dot blot); assay type: biochemical; parameters: purchased Lee Biosolutions (St. Louis, Mo.); settings: MPO 50 nM, H2O2 50 μM, NaNO2 50 μM, 37° C., 4 h
T1 sequence (P05164 49-745): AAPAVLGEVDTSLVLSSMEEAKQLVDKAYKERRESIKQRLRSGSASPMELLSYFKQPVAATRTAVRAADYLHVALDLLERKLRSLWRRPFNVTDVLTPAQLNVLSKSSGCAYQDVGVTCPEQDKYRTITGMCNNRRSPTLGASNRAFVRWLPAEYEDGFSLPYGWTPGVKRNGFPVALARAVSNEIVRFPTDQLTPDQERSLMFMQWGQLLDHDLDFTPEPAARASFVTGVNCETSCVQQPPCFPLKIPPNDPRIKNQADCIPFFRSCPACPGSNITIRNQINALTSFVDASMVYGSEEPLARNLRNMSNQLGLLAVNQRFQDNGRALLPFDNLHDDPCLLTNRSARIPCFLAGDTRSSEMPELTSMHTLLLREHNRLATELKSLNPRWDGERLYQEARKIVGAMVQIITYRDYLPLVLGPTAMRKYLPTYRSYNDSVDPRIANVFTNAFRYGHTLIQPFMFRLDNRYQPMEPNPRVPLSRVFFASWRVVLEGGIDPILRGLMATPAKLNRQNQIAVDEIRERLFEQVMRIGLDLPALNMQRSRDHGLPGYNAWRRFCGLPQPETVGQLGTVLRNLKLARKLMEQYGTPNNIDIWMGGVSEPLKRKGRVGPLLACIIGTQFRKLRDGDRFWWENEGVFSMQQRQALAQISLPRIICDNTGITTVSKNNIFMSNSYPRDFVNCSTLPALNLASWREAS
Protocol: MPO-mediated Nitration of LDL: LDL (0.5 mg/mL) was incubated with MPO (50 nM), H2O2 (50 μM), NaNO2 (50 μM) and increasing concentrations of KYC in phosphate buffer (100 mM, pH 7.4) containing DTPA (100 μM) at 37° C. for 4 h. Reactions were stopped by addition of catalase (2,000 units/mL). Formation of NO2Tyr was assessed by dot blot analysis. Briefly, LDL solutions were mixed with 1% SDS and centrifuged (12000 g, 15 min) Aliquots of supernatants were applied to a nitrocellulose membrane with a dot blot apparatus (Biorad model: Bio-Dot). The levels of NO2Tyr were visualized using a rabbit polyclonal anti-NO2Tyr antibody (EMD, Gibbstown, N.J.) and the ECL plus kit from Thermo-Peirce (Rockford, Ill.).

MPO [2] = molecular target: T1, MPO; assay: MPO-catalyzed HOCl production (taurine/TMB assay); assay type: biochemical; parameters: purchased Lee Biosolutions (St. Louis, Mo.)
Protocol: MPO-mediated HOCl Production. MPO (20 nM) was incubated with H2O2 (50 μM), NaCl (150 mM), taurine (5 mM) and increasing concentrations of KYC in phosphate buffer (100 mM, pH 7.4) which also contained diethylene triamine pentaacetic acid (DTPA, 100 μM) to prevent non-specific, divalent metal cation oxidation for 30 min. Reactions were halted by addition of catalase. Chlorotaurine was quantified using the 3,3-,5,5-tetramethylbenzidine (TMB) assay. Briefly, 400 μL of reaction solution was mixed with 100 μL of 2 mM TMB, 100 μM NaI containing 10% dimethylformamide (DMF) in 400 mM acetate buffer (pH 5.4). After 5 min, absorbance (650 nm) was recorded on a UV/Vis spectrophotometer (Agilent Model 8453).
MPO-catalyzed HOCl Production: MPO (20 nM) was incubated with H2O2 (50 μM), NaCl (150 mM), taurine (5 mM) and increasing concentrations of KYC in a phosphate buffer (100 mM, pH 7.4) containing diethylene triamine pentaacetic acid (DTPA, 100 μM) to prevent non-specific, divalent metal cation oxidation for 30 min. Reactions were halted by addition of catalase (2,000 units/mL). Chlorotaurine was quantified using the TMB assay (66). Briefly, 400 μL of reaction solution was mixed with 100 μL of 2 mM TMB, 100 μM NaI containing 10% dimethylformamide (DMF) in 400 mM acetate buffer (pH 5.4). After 5 min, absorbance (650 nm) was recorded on a UV/Vis spectrophotometer (Agilent Model 8453).

MPO [3] = molecular target: T1, MPO; assay: MPO-mediated LDL Trp oxidation (Trp fluorescence); assay type: biochemical; parameters: purchased Lee Biosolutions (St. Louis, Mo.); settings: MPO/H2O2/NO2−, 30 min, room temperature
Protocol: MPO-mediated LDL Trp Oxidation: Reaction mixtures containing LDL (0.15 mg/mL), NaNO2 (100 μM), H2O2 (100 μM), MPO (20 nM) and increasing concentrations of KYC in a phosphate buffer (100 mM, pH 7.4) containing DTPA (100 μM) were incubated at room temperature for 30 min. Reactions were stopped by addition of catalase (2,000 units/mL) and the oxidation of Trp in LDL was determined by measuring changes in the intrinsic fluorescence of Trp (Ex 294 nm/Em 345 nm) using a LC-50 fluorometer (Perkin Elmer, Waltham Mass.).

SCD mice = assay: Immunofluorescence of aortas of treated SCD mice (chlorotyrosine, MPO); assay type: in vivo, mouse; settings: KYC IP 0.3 mg/kg/d, three weeks, vs non-treated SCD mice
Protocol: Immunofluorescence Studies. In a separate study, SCD mice were treated with KYC (IP, 0.3 mg/kg/d). After three weeks treatment, mice were deeply anesthetized and euthanized by exsanguination. Thoracic and abdominal aortas were surgically removed and rinsed free of blood elements using ice cold PBS. Aortas were fixed, imbedded in paraffin, and sectioned.

[4] = BHT 300 mg/kg single dose, KYC 0.3 mg/kg/d, after 3 days

CC(=O)N[C@@H](CCCCN)C(=O)N[C@@H](Cc1ccc(O)cc1)C(=O)N[C@@H](CS)C(N)=O [KYC, N-acetyl Lysyltyrosylcysteine Amide] (Ac-Lys-Tyr-Cys-NH2)
Decrease of the number of tumors vs untreated mice (lung cancer mice; 6 weeks of KYC treatment, p=0.02): ~50%
Elastase activity in BALF (in words) (lung cancer mice; [4]): significantly decreased
MPO activity in BALF (in words) (lung cancer mice; [4]): significantly decreased
PMN number in BALF (in words) (lung cancer mice; [4]): did not reduce
NO2Tyr in LDL (in words) (MPO [1]): markedly reduces
Effect on MPO HOCl production at equimolar concentration (in words) (MPO [2]; 12.5 μM): comparable to that of tryptophan; also recorded: significantly more effective
MPO-dependent HOCl production at 25 μM (in words) (MPO [2]; 25 μM peptide): completely inhibited; also recorded: completely ablated
IC50 (MPO [2]; MPO 20 nM, H2O2 50 μM, NaCl 150 mM, taurine 5 mM, 30 min, read-out: IC50 for inhibition of MPO-catalyzed HOCl formation): ~7 µM
MPO-dependent oxidation of Trp residues in LDL (in words) (MPO [3]): protected the Trp residues
Chlorotyrosine levels in aortas (in words) (SCD mice): reduced
MPO levels in aortas (in words) (SCD mice): reduced
